Data from patent publication US20150259331A1, “PROTOZOAN PARASITE GROWTH INHIBITORS” (Northeastern University, priority 2014, published 2015).
Like-named read-outs stand apart in the source and are kept apart here.

Columns and labels:
[1] = test system: L. major amastigote; test: L. major amastigote assay; assay type: cell-based; conditions: Leishmania major
[2] = Thermodynamic aqueous solubility; assay type: physicochemical
[3] = test system: T. brucei brucei Lister 427; test: Trypanosome replication assay; assay type: cell-based, Trypanosoma brucei brucei; conditions: Trypanosoma brucei
[4] = test system: T. cruzi; test: T. cruzi growth inhibition; assay type: cell-based, Trypanosoma cruzi; conditions: Trypanosoma cruzi
[5] = test system: T. brucei brucei CA427; test: Drug efficacy in a mouse model of human African trypanosomiasis
Source text: The kinetoplast and nucleus can be tracked by microscopy during the cell cycle, which begins with trypanosomes harboring one nucleus (1N) and one kinetoplast (1K) (i.e., 1K1N cells). A kinetoplast that is replicating its (DNA) (i.e., kDNA) and increasing the organelle's mass is observed as an elongated kinetoplast (1Ke). Fission (segregation) of 1Ke kinetoplasts into two daughter kinetoplasts (2K) inside the same cell is coincident with the nuclear S-phase and produces 2K1N trypanosomes. Mitosis then occurs, yielding trypanosomes containing two kinetoplasts and two nuclei (2K2N). Following cell division, each daughter trypanosome has a 1K1N configuration of the organelles.
Swiss Webster (female) mice, aged 8-10 weeks, were intraperitoneally inoculated with 10^3 T. brucei CA427 strain using a 1 ml hypodermic syringe and 26G ½″ needle (day 0). The mice were assigned to control or NEU617 -treated groups (four per group). Treatment was initiated one-day post infection for two weeks. Control group received the vehicle only. Drug-treated mice were given 10 mg/kg NEU617 twice daily at 12 h interval (orally or intraperitoneally) based on their body weights. NEU617 was reconstituted in (i) DMSO for intraperitoneal (I.P.) administration, and (ii) N-methyl-2-pyrrolidone and polyethylene glycol 300 (1:9, v/v) for oral (P.O.) dosing. Drugs were prepared fresh daily and the concentration was adjusted so that the animals received <200 μl of solvent/dose/animal. […] Further dilutions of blood were made with bicine-buffered saline with glucose, as needed. Animals showing distress symptoms at any stage of the study were euthanized. All experiments were conducted following protocols approved by the Institutional Animal Care and Use Committee (IACUC).

Fc1cccc(COc2ccc(Nc3ncnc4ccc(-c5cccc(N6CCOCC6)c5)cc34)cc2Cl)c1 [Compound 23a, N-(3-Chloro-4-((3-fluorobenzyl)oxy)phenyl)-6-(3-morpholinophenyl)quinazolin-4-amine]
EC50 [1]: 8000 nM
Solubility [2]: <1 µM
EC50 ([3]; 48 h, concentration giving 50% inhibition of growth of T brucei brucei Lister 427 cells, 48 h, values ±7%, read-out: Tbb EC50): 42 nM
EC50 ([3]; read-out: EC50 expressed as ng/mL, T. brucei EC50 converted, FIG. 1 legend): 22.7 ng/mL
EC50 [4]: 1800 nM
delay of detection of trypanosomes in the blood ([5]; 10 mg/kg twice per day ip): 24 h
survival on day 8 ([5]; 10 mg/kg twice per day ip, all untreated mice had died): all alive
mouse survival life span ([5]; 10 mg/kg twice per day ip, control group 5 days): 9 days
time without parasites detected in the blood of infected mice ([5]; 40 mg/kg once per day from 24 h after infection, control positive on day 2): 3 days
drug-related toxicity ([5]; multiday regimen at 40 mg/kg): drug-related toxicity was observed
